Laboratory results: PubChem BioAssay (NCI)
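Cells were grown in 96-well plates and exposed to each compound for 48 hours at five concentrations; endpoints were interpolated linearly between bracketing concentrations, or set to the highest concentration if not reached. TGI is the concentration that stops growth completely.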

How the values were obtained:
Assay in all cases: NCI anticancer screen, dose series, 48 h
A549 NSCLC = tested on: A549 NSCLC
HCC-2998 colon = tested on: HCC-2998 colon
HL-60(TB) leukemia = tested on: HL-60(TB) leukemia
K-562 leukemia = tested on: K-562 leukemia
LOX IMVI melanoma = tested on: LOX IMVI melanoma
M14 melanoma = tested on: M14 melanoma
NCI-H226 lung = tested on: NCI-H226 lung
SK-MEL-2 melanoma = tested on: SK-MEL-2 melanoma
SK-OV-3 ovarian = tested on: SK-OV-3 ovarian
SW-620 colon = tested on: SW-620 colon
SN12C renal = tested on: SN12C renal
DU-145 prostate = tested on: DU-145 prostate
MDA-MB-231 breast = tested on: MDA-MB-231 breast
NCI/ADR-RES ovarian = tested on: NCI/ADR-RES ovarian
PC-3 prostate = tested on: PC-3 prostate

| Compound | TGI (A549 NSCLC) [µM] | TGI (HCC-2998 colon) [µM] | TGI (HL-60(TB) leukemia) [µM] | TGI (K-562 leukemia) [µM] | TGI (LOX IMVI melanoma) [µM] | TGI (M14 melanoma) [µM] | TGI (NCI-H226 lung) [µM] | TGI (SK-MEL-2 melanoma) [µM] | TGI (SK-OV-3 ovarian) [µM] | TGI (SW-620 colon) [µM] | TGI (SN12C renal) [µM] | TGI (DU-145 prostate) [µM] | TGI (MDA-MB-231 breast) [µM] | TGI (NCI/ADR-RES ovarian) [µM] | TGI (PC-3 prostate) [µM] |
| --- | --- | --- | --- | --- | --- | --- | --- | --- | --- | --- | --- | --- | --- | --- | --- |
| COC(=O)NN=C1C(C)(C)C(=O)C1(C)C | > 100 | > 100 | > 100 | > 100 | > 100 | > 100 | > 100 | > 100 | > 100 | > 100 | – | – | – | – | – |
| NC(CCC(=O)NC(CSC(=O)N(O)c1ccccc1)C(=O)NCC(=O)O)C(=O)O (centres undefined) | > 1000 | > 1000 | > 1000 | > 1000 | > 1000 | > 1000 | > 1000 | > 1000 | > 1000 | > 1000 | > 1000 | – | – | – | – |
| CSc1sc(=S)sc1C(=O)N(C)c1ccccc1 | > 100 | – | > 100 | > 100 | > 100 | > 100 | > 100 | > 100 | – | > 100 | > 100 | – | – | – | – |
| CC(=O)N(C(C)=O)n1c(-c2ccccc2)n[nH]c1=O | > 100 | > 100 | – | > 100 | > 100 | > 100 | – | > 100 | > 100 | > 100 | > 100 | > 100 | > 100 | > 100 | > 100 |
| COC(=O)NC12CC3CC(CC(F)(C3)C1)C2 | > 100 | > 100 | > 100 | > 100 | > 100 | > 100 | – | > 100 | > 100 | > 100 | – | – | – | – | – |
| Cn1ccc2c(C(=O)c3ccccc3)cccc2c1=O | > 100 | > 100 | 88.9 | – | > 100 | > 100 | – | > 100 | > 100 | > 100 | > 100 | – | – | – | – |
| COc1ccc2c(c1)Oc1cc(O)ccc1[C@@H]2c1ccccc1C(=O)NC(C)c1ccccc1 (some centres undefined) | 42.5 | 26.6 | 34.5 | > 100 | 30.4 | 24.6 | 35.4 | 46.6 | 49.1 | 38.9 | 28.6 | – | – | – | – |
| O=C(c1ccccc1)[C@@H]1C[C@H](Sc2ccccc2)c2cc(Cl)ccc2N1 | > 100 | 51.8 | – | 74.3 | 47.7 | 74.5 | 62.9 | 97.6 | – | 59.8 | 33.7 | – | – | – | – |
| O=C(O)CCc1cccc2c1oc1c(CCC(=O)O)cccc12 | > 100 | > 100 | > 100 | > 100 | > 100 | > 100 | > 100 | > 100 | > 100 | > 100 | > 100 | – | – | – | – |
| COc1ccc(/C=C2\N=C(SC)N(CN3CCCCC3)C2=O)cc1 | > 100 | – | – | > 100 | > 100 | > 100 | > 100 | > 100 | > 100 | > 100 | > 100 | > 100 | > 100 | > 100 | > 100 |
| CC(O)c1ccc[n+](Cc2ccccc2)c1 (centres undefined) | > 400 | > 400 | > 400 | > 400 | > 400 | – | > 400 | > 400 | > 400 | > 400 | > 400 | – | – | – | – |
| Nc1ncnc2c1ncn2C1OC(CO)C(O)C(O)C1O (centres undefined) | > 100 | > 100 | > 100 | > 100 | > 100 | > 100 | > 100 | > 100 | – | > 100 | > 100 | > 100 | > 100 | > 100 | > 100 |
| N#CCCN(c1ccc(C=Nc2ccccc2Cl)cc1)S(=O)(=O)c1ccccc1 | > 100 | > 100 | > 100 | > 100 | > 100 | > 100 | > 100 | > 100 | > 100 | > 100 | > 100 | – | – | – | – |
| CC1=NN(C(=O)CC(=O)NC(=O)CC(=O)Nc2ccccc2F)C(=O)C1N=Nc1ccc([N+](=O)[O-])cc1 (centres undefined) | 86.2 | > 100 | – | 65.4 | 35.8 | > 100 | > 100 | > 100 | > 100 | 41.1 | > 100 | – | – | – | – |
| COc1ccc(N2C(=O)C3c4[nH]c5ccccc5c4C4CC(C)CC(C)C4C3C2=O)cc1 (centres undefined) | > 100 | > 100 | > 100 | > 100 | – | > 100 | > 100 | – | > 100 | > 100 | > 100 | – | – | – | – |
| NC(=O)C1Cc2cc3c(cc21)OCO3 (centres undefined) | > 100 | > 100 | – | – | > 100 | > 100 | > 100 | – | > 100 | – | – | > 100 | > 100 | > 100 | > 100 |
| CCCCCCCCCCCCCCCCOCC(CP(=O)([O-])OCC[n+]1ccccc1)OC (centres undefined) | 24.1 | 7.4 | 5.19 | 32.8 | – | 17.9 | 15.5 | 31.9 | 32.7 | 31.6 | 24.9 | – | – | – | – |
